In patent US20230081426A1, “COMPOUNDS AND METHODS FOR KRAS MODULATION AND INDICATIONS THEREFOR” (Plexxikon Inc., priority 2020, published 2023):

Key:
[1] = biological target: T1, G12D-mutant human KRAS (amino acid residues 1-188) (Homo sapiens, UniProt P01116, G12D); experiment: KRAS Binding Disruption Assay (AlphaScreen; biotinylated KRpep-2d analogue or RAF1-RBD), G12D; details: KRAS G12D; geometric mean; read-out: KRAS GMean IC50 (uM) MUTATION: G12D
T1 construct: G12D or G12C-mutant human KRAS (amino acid residues 1-188) with FLAG tag; made in house; host or cells: E. coli
Summary of the method: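 Mutant KRAS (5-20 nM) incubated 1 h at 25° C with test compound and 5-20 nM biotinylated KRpep-2d analogue or RAF1-RBD in 20 mM HEPES pH 7.5, 100 mM NaCl, 5 mM MgCl2, 0.01% Tween-20, 0.01% BSA.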

[2] = biological target: T2, G12V-mutant human KRAS (amino acid residues 1-188) (Homo sapiens, UniProt P01116, G12V); experiment: KRAS Binding Competition Assay (AlphaScreen; biotinylated KRpep-2d analogue), G12V; details: geometric mean, read-out: KRAS GMean IC50 (uM) MUTATION: G12V
T2 construct: G12V-mutant human KRAS (amino acid residues 1-188) with FLAG tag was purified from E. coli; made in house; host or cells: E. coli

Work on `CONC(=O)N1C[C@H]2CC[C@@H](C1)N2c1nc(OC[C@@H]2CCCN2C)nc2cc(-c3cc(O)cc4ccccc34)ccc12` [P-0214, (1R,5S)-8-(7-(3-hydroxynaphthalen-1-yl)-2-(((S)-1-methylpyrrolidin-2-yl)methoxy)quinazolin-4-yl)-N-methoxy-3,8-diazabicyclo[3.2.1]octane-3-carboxamide] yielded an IC50 [1] of 10 to 100 µM and an IC50 [2] of 10 to 100 µM.
`CCN1CCC(NC(=O)N2C[C@H]3CC[C@@H](C2)N3c2nc(OC[C@@H]3CCCN3C)nc3cc(-c4cc(O)cc5ccccc45)ccc23)C1` (stereo partly drawn) [P-0215, (1R,5S)-N-(1-ethylpyrrolidin-3-yl)-8-(7-(3-hydroxynaphthalen-1-yl)-2-(((S)-1-methylpyrrolidin-2-yl)methoxy)quinazolin-4-yl)-3,8-diazabicyclo[3.2.1]octane-3-carboxamide] gave an IC50 [1] of 10 to 100 µM and an IC50 [2] of 100 to 1000 µM.
`CN1CCC[C@H]1COc1nc(N2[C@@H]3CC[C@H]2CN(C(=O)NCc2ccccn2)C3)c2ccc(-c3cc(O)cc4ccccc34)cc2n1` [P-0216, (1R,5S)-8-(7-(3-hydroxynaphthalen-1-yl)-2-(((S)-1-methylpyrrolidin-2-yl)methoxy)quinazolin-4-yl)-N-(pyridin-2-ylmethyl)-3,8-diazabicyclo[3.2.1]octane-3-carboxamide] showed an IC50 [1] of 10 to 100 µM and an IC50 [2] of 10 to 100 µM.
With `CN1CCC[C@H]1COc1nc(N2[C@@H]3CC[C@H]2CN(C(=O)C(N)=O)C3)c2ccc(-c3cc(O)cc4ccccc34)cc2n1` [P-0217, 2-((1R,5S)-8-(7-(3-hydroxynaphthalen-1-yl)-2-(((S)-1-methylpyrrolidin-2-yl)methoxy)quinazolin-4-yl)-3,8-diazabicyclo[3.2.1]octan-3-yl)-2-oxoacetamide] the IC50 [1] was 10 to 100 µM and the IC50 [2] was 10 to 100 µM.
In the case of `CN1CCC[C@H]1COc1nc(N2[C@@H]3CC[C@H]2CN(C(=O)CCC(N)=O)C3)c2ccc(-c3cc(O)cc4ccccc34)cc2n1` [P-0218, 4-((1R,5S)-8-(7-(3-hydroxynaphthalen-1-yl)-2-(((S)-1-methylpyrrolidin-2-yl)methoxy)quinazolin-4-yl)-3,8-diazabicyclo[3.2.1]octan-3-yl)-4-oxobutanamide], the IC50 [1] is reported as 10 to 100 µM and the IC50 [2] is reported as 10 to 100 µM.
`CN1CCC[C@H]1COc1nc(N2[C@@H]3CC[C@H]2CN(C(=O)C(O)CO)C3)c2ccc(-c3cc(O)cc4ccccc34)cc2n1` (stereo partly drawn) [P-0219, 2,3-dihydroxy-1-((1R,5S)-8-(7-(3-hydroxynaphthalen-1-yl)-2-(((S)-1-methylpyrrolidin-2-yl)methoxy)quinazolin-4-yl)-3,8-diazabicyclo[3.2.1]octan-3-yl)propan-1-one] gave an IC50 [1] of 10 to 100 µM and an IC50 [2] of 10 to 100 µM.
Work on `C[C@@H](O)C(=O)N1C[C@H]2CC[C@@H](C1)N2c1nc(OC[C@@H]2CCCN2C)nc2cc(-c3cc(O)cc4ccccc34)ccc12` [P-0220, (R)-2-hydroxy-1-((1R,5S)-8-(7-(3-hydroxynaphthalen-1-yl)-2-(((S)-1-methylpyrrolidin-2-yl)methoxy)quinazolin-4-yl)-3,8-diazabicyclo[3.2.1]octan-3-yl)propan-1-one] yielded an IC50 [1] of 10 to 100 µM and an IC50 [2] of 100 to 1000 µM.
In the case of `C[C@H](O)C(=O)N1C[C@H]2CC[C@@H](C1)N2c1nc(OC[C@@H]2CCCN2C)nc2cc(-c3cc(O)cc4ccccc34)ccc12` [P-0221, (S)-2-hydroxy-1-((1R,5S)-8-(7-(3-hydroxynaphthalen-1-yl)-2-(((S)-1-methylpyrrolidin-2-yl)methoxy)quinazolin-4-yl)-3,8-diazabicyclo[3.2.1]octan-3-yl)propan-1-one], the IC50 [1] is reported as 10 to 100 µM and the IC50 [2] is reported as 10 to 100 µM.
For `CN1CCC[C@H]1COc1nc(N2[C@@H]3CC[C@H]2CN(C(=O)C2CCC(=O)N2)C3)c2ccc(-c3cc(O)cc4ccccc34)cc2n1` (stereo partly drawn) [P-0222, 5-((1R,5S)-8-(7-(3-hydroxynaphthalen-1-yl)-2-(((S)-1-methylpyrrolidin-2-yl)methoxy)quinazolin-4-yl)-3,8-diazabicyclo[3.2.1]octane-3-carbonyl)pyrrolidin-2-one], the IC50 [1] was 10 to 100 µM and the IC50 [2] was 100 to 1000 µM.
`CN1CCC[C@H]1COc1nc(N2[C@@H]3CC[C@H]2CN(C(=O)[C@@H](N)CO)C3)c2ccc(-c3cc(O)cc4ccccc34)cc2n1` [P-0223, (S)-2-amino-3-hydroxy-1-((1R,5S)-8-(7-(3-hydroxynaphthalen-1-yl)-2-(((S)-1-methylpyrrolidin-2-yl)methoxy)quinazolin-4-yl)-3,8-diazabicyclo[3.2.1]octan-3-yl)propan-1-one] gave an IC50 [1] of 10 to 100 µM and an IC50 [2] of 10 to 100 µM.
`CN1CCC[C@H]1COc1nc(N2[C@@H]3CC[C@H]2CN(C(=O)c2ncc[nH]2)C3)c2ccc(-c3cc(O)cc4ccccc34)cc2n1` [P-0224, ((1R,5S)-8-(7-(3-hydroxynaphthalen-1-yl)-2-(((S)-1-methylpyrrolidin-2-yl)methoxy)quinazolin-4-yl)-3,8-diazabicyclo[3.2.1]octan-3-yl)(1H-imidazol-2-yl)methanone] showed an IC50 [1] of 10 to 100 µM and an IC50 [2] of 0.0001 to 10 µM.
For `CN1CCC[C@H]1COc1nc(N2[C@@H]3CC[C@H]2CN(CC(=O)Nc2ccccn2)C3)c2ccc(-c3cc(O)cc4ccccc34)cc2n1` [P-0225, 2-((1R,5S)-8-(7-(3-hydroxynaphthalen-1-yl)-2-(((S)-1-methylpyrrolidin-2-yl)methoxy)quinazolin-4-yl)-3,8-diazabicyclo[3.2.1]octan-3-yl)-N-(pyridin-2-yl)acetamide], the IC50 [1] was 10 to 100 µM and the IC50 [2] was 10 to 100 µM.
Work on `CN1CCC[C@H]1COc1nc(N2[C@@H]3CC[C@H]2CN(C2CNC2)C3)c2ccc(-c3cc(O)cc4ccccc34)cc2n1` [P-0226, 4-(4-((1R,5S)-3-(azetidin-3-yl)-3,8-diazabicyclo[3.2.1]octan-8-yl)-2-(((S)-1-methylpyrrolidin-2-yl)methoxy)quinazolin-7-yl)naphthalen-2-ol] yielded an IC50 [1] of 100 to 1000 µM and an IC50 [2] of 100 to 1000 µM.
`CN1CCC[C@H]1COc1nc(N2[C@@H]3CC[C@H]2CN(C(=O)CC(N)=O)C3)c2ccc(-c3cc(O)cc4ccccc34)cc2n1` [P-0227, 3-((1R,5S)-8-(7-(3-hydroxynaphthalen-1-yl)-2-(((S)-1-methylpyrrolidin-2-yl)methoxy)quinazolin-4-yl)-3,8-diazabicyclo[3.2.1]octan-3-yl)-3-oxopropanamide] gave an IC50 [1] of 10 to 100 µM and an IC50 [2] of 100 to 1000 µM.
For `CN1CCC[C@H]1COc1nc(N2[C@@H]3CC[C@H]2CN(C(=O)Cc2cnn(C)c2)C3)c2ccc(-c3cc(O)cc4ccccc34)cc2n1` [P-0228, 1-((1R,5S)-8-(7-(3-hydroxynaphthalen-1-yl)-2-(((S)-1-methylpyrrolidin-2-yl)methoxy)quinazolin-4-yl)-3,8-diazabicyclo[3.2.1]octan-3-yl)-2-(1-methyl-1H-pyrazol-4-yl)ethan-1-one], the IC50 [1] was 10 to 100 µM and the IC50 [2] was 100 to 1000 µM.
With `CN1CCC[C@H]1COc1nc(N2[C@@H]3CC[C@H]2CN(C(=O)C(=O)Nc2ccccn2)C3)c2ccc(-c3cc(O)cc4ccccc34)cc2n1` [P-0229, 2-((1R,5S)-8-(7-(3-hydroxynaphthalen-1-yl)-2-(((S)-1-methylpyrrolidin-2-yl)methoxy)quinazolin-4-yl)-3,8-diazabicyclo[3.2.1]octan-3-yl)-2-oxo-N-(pyridin-2-yl)acetamide] the IC50 [1] was 10 to 100 µM and the IC50 [2] was 10 to 100 µM.
`CN1CCC[C@H]1COc1nc(N2[C@@H]3CC[C@H]2CN(C(=O)c2ncn[nH]2)C3)c2ccc(-c3cc(O)cc4ccccc34)cc2n1` [P-0230, ((1R,5S)-8-(7-(3-hydroxynaphthalen-1-yl)-2-(((S)-1-methylpyrrolidin-2-yl)methoxy)quinazolin-4-yl)-3,8-diazabicyclo[3.2.1]octan-3-yl)(1H-1,2,4-triazol-5-yl)methanone] was tested, and the IC50 [1] was 10 to 100 µM and the IC50 [2] was 10 to 100 µM.
With `CN1CCC[C@H]1COc1nc(N2[C@@H]3CC[C@H]2CN(C(=N)N)C3)c2ccc(-c3cc(O)cc4ccccc34)cc2n1` [P-0231, (1R,5S)-8-(7-(3-hydroxynaphthalen-1-yl)-2-(((S)-1-methylpyrrolidin-2-yl)methoxy)quinazolin-4-yl)-3,8-diazabicyclo[3.2.1]octane-3-carboximidamide] the IC50 [1] was 10 to 100 µM and the IC50 [2] was 10 to 100 µM.
Work on `Oc1cc(-c2ccc3c(N4[C@@H]5CC[C@H]4CNC5)nc(CCc4ccccn4)nc3c2)c2ccccc2c1` [P-0232, 4-(4-((1R,5S)-3,8-diazabicyclo[3.2.1]octan-8-yl)-2-(2-(pyridin-2-yl)ethyl)quinazolin-7-yl)naphthalen-2-ol] yielded an IC50 [1] of 0.0001 to 10 µM and an IC50 [2] of 10 to 100 µM.
With `NC(=O)CCc1nc(N2[C@@H]3CC[C@H]2CNC3)c2ccc(-c3cc(O)cc4ccccc34)cc2n1` [P-0233, 3-(4-((1R,5S)-3,8-diazabicyclo[3.2.1]octan-8-yl)-7-(3-hydroxynaphthalen-1-yl)quinazolin-2-yl)propanamide] the IC50 [1] was 0.0001 to 10 µM and the IC50 [2] was 0.0001 to 10 µM.
In the case of `CN1CCC[C@H]1COc1nc(N2C[C@H]3CC[C@@H](C2)N3)c2ccc(-c3cncc(Cl)c3Cl)cc2n1` [P-0234, 4-((1R,5S)-3,8-diazabicyclo[3.2.1]octan-3-yl)-7-(4,5-dichloropyridin-3-yl)-2-(((S)-1-methylpyrrolidin-2-yl)methoxy)quinazoline], the IC50 [1] is reported as 10 to 100 µM and the IC50 [2] is reported as 100 to 1000 µM.
For `CN1CCC[C@H]1COc1nc(N2CC3CCC(C2)N3)c2ccc(-c3cc(Cl)cn4ccnc34)cc2n1` [P-0235], the IC50 [1] was 10 to 100 µM and the IC50 [2] was 10 to 100 µM.
For `CN1CCC[C@H]1COc1nc(N2C[C@H]3CC[C@@H](C2)N3)c2ccc(-c3c(Cl)ccc4[nH]ccc34)cc2n1` [P-0236, 4-((1R,5S)-3,8-diazabicyclo[3.2.1]octan-3-yl)-7-(5-chloro-1H-indol-4-yl)-2-(((S)-1-methylpyrrolidin-2-yl)methoxy)quinazoline], the IC50 [1] was 10 to 100 µM and the IC50 [2] was 10 to 100 µM.
